# Key:
# Lanosterol synthase [1] = biological target: T1, Lanosterol synthase (Rattus norvegicus, UniProt P48450); experiment: Compound was evaluated for the inhibition of microsomal 2,3-oxidosqualene cyclase in rat liver microsomes; design: species or system Microsome; settings: read-out: I50
# T1 sequence (P48450 whole entry): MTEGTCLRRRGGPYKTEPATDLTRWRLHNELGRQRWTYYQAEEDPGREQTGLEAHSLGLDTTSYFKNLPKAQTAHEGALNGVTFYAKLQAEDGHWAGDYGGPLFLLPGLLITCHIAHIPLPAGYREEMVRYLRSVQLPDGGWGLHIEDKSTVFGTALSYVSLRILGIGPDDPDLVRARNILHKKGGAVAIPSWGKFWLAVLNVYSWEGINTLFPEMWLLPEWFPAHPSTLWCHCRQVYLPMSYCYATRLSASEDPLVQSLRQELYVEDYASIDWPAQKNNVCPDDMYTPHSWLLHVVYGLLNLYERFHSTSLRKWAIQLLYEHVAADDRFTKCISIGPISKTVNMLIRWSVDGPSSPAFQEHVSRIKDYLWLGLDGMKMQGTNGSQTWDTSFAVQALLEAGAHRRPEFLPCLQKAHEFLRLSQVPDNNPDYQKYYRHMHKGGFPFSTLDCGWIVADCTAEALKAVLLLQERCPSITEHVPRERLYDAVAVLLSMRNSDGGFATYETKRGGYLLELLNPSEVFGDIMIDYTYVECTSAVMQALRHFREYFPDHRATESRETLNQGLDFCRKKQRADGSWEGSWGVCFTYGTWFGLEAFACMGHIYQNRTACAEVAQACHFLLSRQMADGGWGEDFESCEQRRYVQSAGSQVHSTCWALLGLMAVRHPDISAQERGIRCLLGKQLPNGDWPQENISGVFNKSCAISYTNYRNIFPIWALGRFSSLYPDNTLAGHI
# Lanosterol synthase [2] = biological target: T1, Lanosterol synthase; experiment: Compound was evaluated for the inhibition of microsomal 2,3-oxidosqualene-lanosterol cyclase in rat liver microsomes; design: species or system Microsome; settings: read-out: I50
Structure (SMILES),IC50 (Lanosterol synthase [1]) [µM],IC50 (Lanosterol synthase [2]) [µM]
CC(C)=CCC/C(C)=C/CCC(C)=CCCCN(C)CC/C=C(/C)CCC1OC1(C)C (configuration not stated),> 20,–
CC(C)=CCC/C(C)=C/CC/C(C)=C/CCCN(C)CC/C=C(\C)CCC1OC1(C)C (configuration not stated),–,4.8

# — ChEMBL document CHEMBL1125522, “2,3-Epoxy-10-aza-10,11-dihydrosqualene, a high-energy intermediate analogue inhibitor of 2,3-oxidosqualene cyclase” (J Med Chem, 1992)
